Assay results taken from ChEMBL document CHEMBL3392964, “Design, synthesis, and evaluation of novel imidazo[1,2-a][1,3,5]triazines and their derivatives as focal adhesion kinase inhibitors with antitumor activity” (J Med Chem, 2015).

Target: Focal adhesion kinase 1 (Homo sapiens, UniProt Q05397)
Assay: Inhibition of FAK (unknown origin) using ULight-poly GT as substrate after 1.6 hrs by TR-FRET assay

Chain of Focal adhesion kinase 1 (Q05397 whole entry): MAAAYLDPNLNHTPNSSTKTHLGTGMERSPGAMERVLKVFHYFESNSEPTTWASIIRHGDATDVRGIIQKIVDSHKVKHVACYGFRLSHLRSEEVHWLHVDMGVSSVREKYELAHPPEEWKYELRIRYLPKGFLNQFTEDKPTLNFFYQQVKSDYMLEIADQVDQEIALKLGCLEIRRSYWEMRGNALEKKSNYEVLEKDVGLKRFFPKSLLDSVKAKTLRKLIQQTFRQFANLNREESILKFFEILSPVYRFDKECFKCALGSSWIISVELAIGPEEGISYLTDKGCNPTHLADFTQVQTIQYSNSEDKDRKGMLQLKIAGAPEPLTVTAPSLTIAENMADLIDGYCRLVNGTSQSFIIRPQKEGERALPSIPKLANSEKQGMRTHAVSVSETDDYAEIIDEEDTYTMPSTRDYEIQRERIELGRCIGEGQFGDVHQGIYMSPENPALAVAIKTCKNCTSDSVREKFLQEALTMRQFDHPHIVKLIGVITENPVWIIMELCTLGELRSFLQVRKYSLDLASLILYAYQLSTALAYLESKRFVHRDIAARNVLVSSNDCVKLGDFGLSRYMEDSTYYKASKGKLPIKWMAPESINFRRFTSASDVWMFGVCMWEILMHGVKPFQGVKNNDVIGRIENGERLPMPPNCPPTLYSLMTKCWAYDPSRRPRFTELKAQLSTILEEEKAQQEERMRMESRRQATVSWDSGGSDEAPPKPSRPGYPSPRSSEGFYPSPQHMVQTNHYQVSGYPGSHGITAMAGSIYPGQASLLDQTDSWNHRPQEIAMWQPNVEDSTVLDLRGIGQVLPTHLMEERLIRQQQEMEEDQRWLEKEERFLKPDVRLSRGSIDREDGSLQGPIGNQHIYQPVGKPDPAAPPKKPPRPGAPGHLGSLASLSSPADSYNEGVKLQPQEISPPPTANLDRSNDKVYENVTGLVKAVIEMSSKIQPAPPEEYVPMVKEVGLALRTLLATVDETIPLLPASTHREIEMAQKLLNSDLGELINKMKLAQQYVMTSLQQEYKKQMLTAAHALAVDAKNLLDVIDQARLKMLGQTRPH

| Structure (SMILES) | IC50 [nM] |
| --- | --- |
| CNC(=O)c1ccccc1Nc1nc(Nc2ccc(C#N)cc2)n2ccnc2n1 | 1120 |
| COc1cc(NC2=Nc3nccn3C(Cc3ccccc3NC(C)=O)N2)cc(OC)c1OC (stereo not drawn) | 8910 |
| CNC(=O)c1ccccc1Nc1nc(Nc2ccc(CN)cc2)n2ccnc2n1 | 220 |
| C=COC(=O)NCc1ccc(Nc2nc(Nc3ccccc3C(=O)OC)nc3nccn23)cc1 | 1050 |
| CS(=O)(=O)Nc1ccccc1Nc1nc(Nc2ccc(C#N)cc2)n2ccnc2n1 | 1730 |
| COC(=O)c1cccc(Nc2nc(Nc3cc(OC)c(OC)c(OC)c3)n3ccnc3n2)c1 | 1200 |
| COC(=O)c1ccccc1Nc1nc(Nc2ccc(N3CCOCC3)cc2OC)n2ccnc2n1 | 570 |
| CNC(=O)c1ccccc1Nc1nc(Nc2cc(OC)c(OC)c(OC)c2)n2ccnc2n1 | 310 |

More lines, now with the values ahead:

| IC50 [nM] | Structure (SMILES) |
| --- | --- |
| 710 | CNC(=O)c1ccccc1Nc1nc(Nc2ccc(C#N)cc2)nc2nccn12 |
| 570 | COC(=O)c1ccccc1Nc1nc(Nc2cc(OC)c(OC)c(OC)c2)n2ccnc2n1 |
| 880 | C=COC(=O)NCc1ccc(Nc2nc(Nc3ccccc3C(=O)NC)nc3nccn23)cc1 |
| 370 | COC(=O)c1ccccc1Nc1nc(Nc2ccc(N3CCOCC3)cc2OC)nc2nccn12 |
| 870 | COC(=O)c1cccc(Nc2nc(Nc3cc(OC)c(OC)c(OC)c3)nc3nccn23)c1 |
